Laboratory results from ChEMBL document CHEMBL1124760, “Antirhinovirus activity of 6-anilino-9-benzyl-2-chloro-9H-purines” (J Med Chem, 1990).

Columns and labels:
Type in all cases: functional, organism-based
rhinovirus A1B = assay: Inhibitory activity against rhinovirus type 1B; conditions: Rhinovirus A
rhinovirus A2 = assay: Evaluated for inhibitory activity against rhinovirus type 2; conditions: Rhinovirus A
rhinovirus B5 = assay: Evaluated for inhibitory activity against rhinovirus type 5; conditions: Rhinovirus B
rhinovirus B4 = assay: Evaluated for inhibitory activity against rhinovirus type 4; conditions: Rhinovirus B

Structure (SMILES) | IC50 (rhinovirus A1B) | IC50 (rhinovirus A2) | IC50 (rhinovirus B5) | IC50 (rhinovirus B4)
CS(=O)(=O)c1cccc(Nc2nc(Cl)nc3c2ncn3Cc2ccccc2)c1 | > 40 µM |  |  | 
Cc1ccc(Nc2nc(Cl)nc3c2ncn3Cc2ccccc2)cc1 | 0.3 µM | 1.2 µM |  | 
CCCCOc1cccc(Nc2nc(Cl)nc3c2ncn3Cc2ccccc2)c1 | 22 µM |  |  | 
Clc1nc(Nc2cccc(Br)c2)c2ncn(Cc3ccccc3)c2n1 | 2.9 µM | 2.8 µM | 7.6 µM | 5.7 µM
CSc1ccc(Nc2nc(Cl)nc3c2ncn3Cc2ccccc2)cc1 | 0.14 µM | 11 µM |  | 8.7 µM
CC(=O)Nc1ccc(Nc2nc(Cl)nc3c2ncn3Cc2ccccc2)cc1 | > 20 µM |  |  | 
CN(C)c1ccc(Nc2nc(Cl)nc3c2ncn3Cc2ccccc2)cc1 | > 40 µM |  |  | 
CC(C)Oc1ccc(Nc2nc(Cl)nc3c2ncn3Cc2ccccc2)cc1 | > 40 µM |  |  | 
Fc1cccc(Nc2nc(Cl)nc3c2ncn3Cc2ccccc2)c1 | 1.2 µM | 5.6 µM | 5.6 µM | 5.5 µM
CC(=O)Nc1cccc(Nc2nc(Cl)nc3c2ncn3Cc2ccccc2)c1 | 1.3 µM |  |  | 
CCOC(=O)c1ccc(Nc2nc(Cl)nc3c2ncn3Cc2ccccc2)cc1 | > 10 µM |  |  | 
CC(C)Oc1cccc(Nc2nc(Cl)nc3c2ncn3Cc2ccccc2)c1 | 2 µM | 3.6 µM |  | 8.3 µM
CCOC(=O)c1cccc(Nc2nc(Cl)nc3c2ncn3Cc2ccccc2)c1 | > 10 µM |  |  | 
CCCCc1ccc(Nc2nc(Cl)nc3c2ncn3Cc2ccccc2)cc1 | > 10 µM |  |  | 
Nc1cccc(Nc2nc(Cl)nc3c2ncn3Cc2ccccc2)c1 | > 10 µM |  |  | 
FC(F)(F)c1ccc(Nc2nc(Cl)nc3c2ncn3Cc2ccccc2)cc1 | 0.3 µM | 16.6 µM | 200 µM | 85 µM
N#Cc1ccc(Nc2nc(Cl)nc3c2ncn3Cc2ccccc2)cc1 | 9.4 µM |  |  | 
Cc1ccc(Cn2cnc3c(N(C)c4ccccc4)nc(C(F)(F)F)nc32)cc1 | 1.9 µM | 2.7 µM | > 8 µM | 5.1 µM
Clc1nc(Nc2ccccc2)c2ncn(Cc3ccccc3)c2n1 | 1.65 µM | 8.3 µM | 16.3 µM | 14.2 µM
CN(C)c1cccc(Nc2nc(Cl)nc3c2ncn3Cc2ccccc2)c1 | 2.4 µM | 3.1 µM | 8.5 µM | 8.4 µM
Fc1ccc(Nc2nc(Cl)nc3c2ncn3Cc2ccccc2)cc1 | 1.28 µM | 6.2 µM | 10 µM | 6.8 µM
Nc1ccc(Nc2nc(Cl)nc3c2ncn3Cc2ccccc2)cc1 | > 20 µM |  |  | 
Clc1nc(Nc2ccc(Br)cc2)c2ncn(Cc3ccccc3)c2n1 | 0.3 µM | 2.2 µM | 9.5 µM | 7.8 µM
CCCCOc1ccc(Nc2nc(Cl)nc3c2ncn3Cc2ccccc2)cc1 | > 40 µM |  |  | 
CS(=O)(=O)c1ccc(Nc2nc(Cl)nc3c2ncn3Cc2ccccc2)cc1 | 2 µM | 10.5 µM |  | 4.5 µM
Cc1ccc(Cn2cnc3c(Nc4ccccc4)nc(Cl)nc32)cc1 | 1 µM | 3.9 µM | > 8 µM | 6.4 µM
Cc1ccc(Cn2cnc3c(N(C)C)nc(C(F)(F)F)nc32)cc1 | 0.03 µM |  |  | 
O=[N+]([O-])c1cccc(Nc2nc(Cl)nc3c2ncn3Cc2ccccc2)c1 | > 10 µM |  |  | 
